Tests used:
cyclin D1 [1] = experiment: Western blotting of cyclin D1 expression in cultured mouse neural stem cells; format: cell-based; conditions: relative to control
Description: Mouse neural stem cells were treated with Compound 4, 6, or 10, and the expression level of cyclin D1, which positively controls cell proliferation, was examined through Western blotting. FIGS. 4A and 4B show the results. In FIGS. 4A and 4B, “Control” indicates the results from adding no compounds, and “Solvent” indicates dimethyl sulfoxide (DMSO).

[2] = test system: zebrafish spinal cord injury; experiment: zebrafish spinal cord injury model, migration distance by behavior analysis; format: in vivo; conditions: in breeding water, sixth to eighth day after fertilization
Excerpt: On the fifth day after fertilization, the zebrafish spinal cord was injured using an ophthalmic scalpel, and the zebrafish was bred in breeding water containing Compound 4 until the eighth day after fertilization.

DYRK1A [3] = target: T1, DYRK1A (Homo sapiens, UniProt Q13627); experiment: Western blotting of tau protein phosphorylation (threonine 212) in cultured cells expressing tau protein and DYRK1A protein; format: cell-based; conditions: 0.3 μM, 1 μM, 3 μM, or 10 μM; antibody to phosphorylated threonine 212 of tau
Description: Tau protein, which is a substrate of a target kinase, was overexpressed in cells in the presence of Compound 4 or 10 at a concentration of 0.3 μM, 1 μM, 3 μM, or 10 μM, and the inhibitory activity of Compounds 4 and 10 was examined using the phosphorylation of the tau protein as an index.
FIG. 2 is an example of the result of Western blotting analysis of cultured cells in which the expression of both tau protein and DYRK1A protein was induced in the presence of Compound 4 or 10 at a concentration of 0.3 μM, 1 μM, 3 μM, or 10 μM, using an antibody that specifically recognizes the phosphorylated threonine residue at 212-position of tau protein was used to analyze.

DYRK1A [4] = target: T1, DYRK1A; experiment: in-vitro kinase assay against DYRK1A; format: biochemical; conditions: for IC50: DYRK peptide as substrate, 10 μM ATP
Description: The inhibitory activity of Compounds 4 and 10 against DYRK1A was examined through in-vitro kinase assay (in-vitro kinase analysis).
The inhibitory activity of Compounds 4 and 10 against DYRK1A was examined in the presence of DYRK1A protein using a DYRK peptide as a substrate under the condition of 10 μM ATP.

cyclin D1 [5] = experiment: Western blotting of cyclin D1 expression in HEK293 cells over time; format: cell-based; conditions: treated over time
Description: HEK293 cells were treated with Compound 4 or 10 over time, and the expression level of cyclin D1 was examined through Western blotting.

[6] = test system: Down syndrome model mice (fetus); experiment: thickness of the cerebral cortex of Down syndrome model fetuses after oral administration to pregnant mice; format: in vivo, mouse; conditions: tenth to fifteenth day of fetal life
Description: Moreover, Compound 4 was orally administered to pregnant mice carrying Down syndrome model mice from the tenth day to fifteenth day of fetal life, and the thickness of the cerebral cortex was measured at the fifteenth day of fetal life. […] In FIGS. 7A and 7B, “Solvent” indicates the results from adding no compound.

[7] = test system: neural stem cells present in the dentate gyrus of the hippocampus; experiment: neurogenesis in the dentate gyrus of the hippocampus after 10-day administration; format: in vivo, rodent; conditions: versus solvent administered group
Description: After 10-day long administration of Compound 4 to a rodent, BrdU was administered thereto, and the number of proliferating cells was quantitatively evaluated. […] In FIGS. 5B and 5C, “Solvent” indicates the results from adding no compound. FIG. 5A is a representative images of thin sections of the dentate gyrus of the hippocampus, and the image of Dapi staining (nucleus staining), the image of doublecortin (DCX) staining, and the image of BrdU staining are shown in the order from top to bottom. FIG. 5B is an example of a graph showing the number of BrdU-positive cells in the dentate gyrus of the hippocampus. FIG. 5C is an example of a graph showing the number of immature neurons in the dentate gyrus of the hippocampus as a relative value determined based on the result from the solvent sample taken as 1.

Mouse neural stem cells = experiment: BrdU uptake in cultured mouse neural stem cells (Arrayscan); format: cell-based; conditions: for incorporation of BrdU into neural stem cells (ratio of BrdU-positive cells relative to control): 1.25 μM, 2.5 μM, or 5 μM
Description: Mouse neural stem cells were treated with Compound 4 or 10, and then neural stem cell proliferating activity was examined using, as an index, uptake of 5-bromo-2′-deoxyuridine (BrdU), which is a nucleoside analog to be used as a proliferation index.
Specifically, isolated neural stem cells were cultured in the presence of BrdU and Compound 4 or 10 at a concentration of 1.25 μM, 2.5 μM, or 5 μM, so that proliferating cells were labeled. After the cells were fixed, BrdU was detected by an anti-BrdU antibody, and the ratio of proliferating cells that had incorporated the BrdU was quantitatively analyzed using Arrayscan (Thermo Scientific). […] In FIG. 3, “Control” indicates the results from adding no compounds, and “Solvent” indicates dimethyl sulfoxide (DMSO).

[8] = test system: Down syndrome model mice (Ts1Cje); experiment: neurogenesis in the dentate gyrus of the hippocampus of Down syndrome model mice; format: in vivo, mouse; conditions: 8-week old Down syndrome model mice
Description: First, a solvent or Compound 4 was administered to 8-week old wild-type mice and 8-week old Down syndrome model mice, and the effect on neurogenesis in the dentate gyrus of the hippocampus was examined.

[9] = test system: neural stem cells isolated Down syndrome model mice (Ts1Cje); experiment: proliferation (BrdU-positive ratio) of neural stem cells from Down syndrome model mice; format: cell-based, mouse; conditions: Ts1Cje versus wild-type
Description: Neural stem cells were prepared from wild-type mice and Down syndrome model mice (Ts1Cje: the same applies hereinafter), and the effect of Compound 4 on the proliferation of neural stem cells isolated Down syndrome model mice was examined. […] In FIG. 6, “Solvent” indicates the results from no adding compound.

[10] = test system: Facial nerve palsy model mice; experiment: facial nerve palsy model, paralysis scores; format: in vivo, ICR mouse; conditions: 10 mg/kg every day from an hour before the operation
Description: A facial nerve trunk (3 mm) of a rodent (ICR mouse; 6 to 8 weeks old) was extracted and compressed using a Mosquito forceps with a width of 1 mm for 30 seconds. Facial nerve palsy model mice were thus produced. Compound 4 (10 mg/kg) was administered every day from an hour before the operation (day 0), and paralysis scores relating to nictitation (“no eye-opening” to “cured”), a nose (“extended” to “cured”), and whiskers (“no movement” to “cured”) were evaluated according to four levels. […] In FIG. 9A, “Solvent” indicates the results from adding no compound.

[11] = test system: fibroblasts derived from human skin; experiment: flow cytometry cell cycle analysis of fibroblasts derived from human skin; format: cell-based; conditions: 48 hours treatment
Description: Next, fibroblasts derived from human skin were treated with a solvent or Compound 4 for 48 hours, and the cell cycle was analyzed through flow cytometry. […] It is considered that this is because Compound 4 stabilized cyclin D1 and thus stimulated the progression of the cell cycle from the G1 phase to the subsequent S phase and G2/M phase.

Down syndrome model mice = experiment: learning and memory tests (Y maze, Barnes maze, fear conditioning) after prenatal administration; format: in vivo, mouse; conditions: 10 mg/kg oral once a day to pregnant mice from tenth day of fetal life until birth; tested at 8 weeks
Description: Compound 4 (10 mg/kg) or a solvent was orally administered to pregnant mice carrying Down syndrome model mice once a day from the tenth day of fetal life until birth. After birth, at the age of 8 weeks, three types of tests (A. Y maze test for spontaneous alteration behavior, B. Barnes maze test for spatial memory, and C. fear conditioning test) were performed successively. FIGS. 8A to 8C show the results. In FIGS. 8A to 8C, “Solvent” indicates the results from adding no compound.

| SMILES | melting point | expression level of cyclin D1 (cyclin D1 [1]) | inhibitory effect against the phosphorylation of tau protein (DYRK1A [3]) | IC50 (DYRK1A [4]) [nM] | protein level of cyclin D1 (cyclin D1 [5]) | incorporation of BrdU into neural stem cells (ratio of BrdU-positive cells relative to control) (Mouse neural stem cells) | also measured |
| --- | --- | --- | --- | --- | --- | --- | --- |
| c1cncc(Nc2cccc3ncccc23)c1 [Compound 8, 5-(3-Pyridylamino)quinoline] | 180 °C (dec.) |  |  |  |  |  |  |
| c1cncc(-c2ccc3[nH]ncc3c2)c1 [Compound 4] |  | significantly high | exhibited a high inhibitory effect | 55.6 | increased (i.e. the cyclin D1 was stabilized) in a treatment time dependent manner | increased the amount of incorporation of BrdU | migration distance after spinal cord injury [2]: migration distance was recovered; thickness of cortical layers [6]: compensated for the cerebral cortex with a reduced thickness; number of immature neurons in the dentate gyrus of the hippocampus [7]: significantly larger; number of proliferating cells (BrdU-positive) in the dentate gyrus of the hippocampus [7]: significantly larger; number of proliferating cells in dentate gyrus of the hippocampus [8]: compensated for the reduced neurogenesis; ratio of BrdU-positive cells in neural stem cells from Down syndrome model mice [9]: compensated for the reduced proliferation; paralysis scores (nictitation, nose, whiskers) [10]: tended to promote recovery; ratio of cell in the G2/M phase of the cell cycle [11]: increased; ratio of cells in the G1 phase of the cell cycle [11]: decreased; cognitive function (Y maze, Barnes maze, fear conditioning tests) (Down syndrome model mice): improved the cognition function |
| c1cnc2ccc(-c3ccncc3)cc2c1 [Compound 10] |  | significantly high | exhibited a high inhibitory effect | 59.7 | increased (i.e. the cyclin D1 was stabilized) in a treatment time dependent manner | increased the amount of incorporation of BrdU |  |
| c1ccc2c(-c3ccc4[nH]ncc4c3)cncc2c1 [Compound 6] |  | significantly high | showed the same tendency as Compounds 4 and 10 |  |  |  | inhibitory activity against DYRK1A (DYRK1A [4]; same experiment as Compounds 4 and 10): lower than that of Compounds 4 and 10; proliferation of cultured neural stem cells (Mouse neural stem cells; 2.5 μM and 5 μM): promoted the proliferation of cultured neural stem cells |
| c1cc(-c2ccc3[nH]ncc3c2)c2cccnc2c1 [Compound 1, 5-(5-Quinolyl)indazole] | 255 °C (dec.) |  |  |  |  |  |  |
